Patent US20260240871A1, “PHARMACEUTICAL COMPOSITION FOR PREVENTION OR TREATMENT OF AGE-RELATED MUSCULOSKELETAL DISORDERS” (SEOUL NATIONAL UNIVERSITY R&DB FOUNDATION, priority 2023, published 2026)

Experiments:
[1] = tested on: DNA damage-induced senescent cells (SEN) and oncogene-induced senescent cells (SEN (OIS)) of human diploid fibroblasts (IMR90, BJ); test: SASP factor and senescence marker gene expression (qRT-PCR) in senescent cell models; assay type: cell-based; conditions: for expression of CDKN2A or CDKN1A: senescent cells; for expression of SASP genes (IL1A, IL1B): senescent cells (SEN), cholesterol depletion, cholesterol stimulation or lovastatin treatment
Experimental: (§1) DNA damage-induced senescence was induced in human diploid fibroblasts (IMR90, BJ) by treatment with ionizing radiation (12 Gy) or bleomycin (10 μg/ml, for 24 hours). Specifically, IMR90 and BJ cells expressing hTERT (DNA damage-induced senescence; SEN), IMR90 cells co-expressing hTERT and H-RasV12 [oncogene-induced senescence; SEN (OIS)], and replication-exhausted [replicative senescent cells; SEN (REP)] IMR90 cells were prepared. Normal proliferating cells (PRO) were used as the control.
To investigate the functional consequences of age-related changes in cholesterol levels, cellular cholesterol was depleted using methyl-β-cyclodextrin (MβCD), and multiple senescence markers were examined during DNA damage-induced aging, including senescence-associated β-galactosidase (SA-β-Gal) activity, cell cycle arrest, and expression of senescence-associated secretory phenotype (SASP) factors.
To specifically confirm the effect of increased expression of lysosomal ABCA1 on SASP activity, experiments were conducted using probucol, an ABCA1 modulator that has been reported to limit its localization to intracellular compartments including lysosomes, and glyburide, a broad-spectrum inhibitor of the ABC transport protein family that promotes channel closure of ABC transporters. The prepared senescent cell models were treated with probucol (10 μM) and/or glyburide (75 μM), and immunoblotting analysis was performed on lysosome immunoprecipitates (LysoIP).

[2] = tested on: mouse primary cultured chondrocytes (SEN); test: SASP regulation in senescent mouse primary cultured chondrocytes (SEN); assay type: cell-based; conditions: probucol 10 μM, glyburide 75 μM, lovastatin 2 μM
Experimental: Mouse primary cultured chondrocytes were isolated from the femoral condyle and tibial plateau of 5-day-old ICR mice.
The ABCA1-deficient mouse primary chondrocyte model was prepared using siRNAs of SEQ ID NOs: 5 to 8. • ABCA1 siRNA #1: SEQ ID NO. 5 • ABCA1 siRNA #2: SEQ ID NO. 6 • ABCA1 siRNA #3: SEQ ID NO. 7 • ABCA1 siRNA #4: SEQ ID NO. 8
Senescence of chondrocytes promotes age-related musculoskeletal disorders. The correlation between cholesterol metabolism and ABCA1 was analyzed in a DNA damage-induced aging model (SEN) of mouse primary cultured chondrocytes isolated from the femoral condyles and tibial plateaus of 5-day-old ICR mice.
When ABCA1 was depleted in mouse primary cultured chondrocytes (SEN), the expression of SASP genes, including Mmp3, Mmp13 and Cxcl1, was suppressed, while the expression of Cdkn2a remained unchanged (FIG. 11B). […] Induction of cholesterol depletion inhibited the sustained activation pattern of mTORC1 (FIG. 11D), which was consistent with the results from the senescent cell model (in vitro) in Example 1. Therefore, it was confirmed that the lysosomal ABCA1 gene is a major factor in SASP regulation in vivo.

[3] = tested on: senescence-induced cells (IMR90, BJ); test: cholesterol measurement (Filipin staining, enzymatic measurement) in senescent cells; assay type: cell-based, human
Experimental: as §1, with “control. […] The prepared senescent cell models were treated with probucol (10 μM) and/or glyburide (75 μM), and immunoblotting analysis was performed on lysosome immunoprecipitates (LysoIP).” for “control.”

[4] = molecular target: T1, lysosomal ABCA1 (Homo sapiens, UniProt O95477); test: immunoblotting of lysosome immunoprecipitates (LysoIP) in senescent cells; assay type: cell-based; conditions: senescent cells (SEN); probucol 10 μM, glyburide 75 μM
T1 construct: endogenous ABCA1 was abundantly present in lysosomes; endogenous in cells; host or cells: senescent human diploid fibroblasts (IMR90, BJ; hTERT-expressing, DNA damage-induced senescence)
Experimental: as §1, with “control. It was analyzed how ABCA1, which mediates cholesterol transport at the plasma membrane, is involved in cholesterol accumulation. […] The prepared senescent cell models were treated with probucol (10 μM) and/or glyburide (75 μM), and immunoblotting analysis was performed on lysosome immunoprecipitates (LysoIP).” for “control.”

[5] = tested on: mTORC1; test: mTORC1 activity in senescent cells; assay type: cell-based, human
Experimental: as §1, with “control. […] The prepared senescent cell models were treated with probucol (10 μM) and/or glyburide (75 μM), and immunoblotting analysis was performed on lysosome immunoprecipitates (LysoIP).” for “control.”

[6] = tested on: male mice subjected to DMM surgery (post-traumatic osteoarthritis); test: post-traumatic osteoarthritis progression after DMM surgery, intra-articular injection; assay type: in vivo, mouse; conditions: for osteoarthritis progression / cartilage destruction in knee joints (Safranin O staining) / expression levels of SASP factors (IL6, MMP13) and senescence markers (p16, nuclear HMGB1) / osteoarthritis-related pain symptoms / pain indicators: intra-articular; for osteoarthritis progression / cartilage destruction in knee joints (Safranin O staining): probucol 200 μM 10 μl weekly for 6 weeks, hydrogel with 3 mM glyburide 10 μl every 10 days for 10 weeks; for expression levels of SASP factors (IL6, MMP13) and senescence markers (p16, nuclear HMGB1) / osteoarthritis-related pain symptoms / pain indicators: probucol 200 μM weekly for 6 weeks, 3 mM glyburide hydrogel every 10 days for 10 weeks
Experimental: In the case of mice, male (C57BL/6J) mice were used since estrogen in female mice may influence osteoarthritis progression and serve as a confounding factor. Post-traumatic osteoarthritis was induced in 12-week-old male mice by destabilization of the medial meniscus (DMM) surgery. To investigate the role of lysosomal cholesterol partitioning regulated by ABCA1 in age-related inflammation in vivo, ABCA1 modulators were administered to male mice subjected to DMM surgery, and their effects on the progression of post-traumatic osteoarthritis were observed. Male mice subjected to either DMM surgery or sham surgery were intra-articularly injected with 10 μl of probucol (200 μM) dissolved in DMSO once a week for 6 weeks, or with 10 μl of PBS-suspended hydrogel containing 3 mM glyburide (PBS:hydrogel=1:1) every 10 days for 10 weeks. After the treatment period, the mice were sacrificed.

[7] = DNA damage-induced senescent cells (SEN) lacking ABCA1, probucol 10 μM
[8] = intra-articular probucol 200 μM weekly for 6 weeks
[9] = SEN and SEN (OIS), glyburide 75 μM

T1 sequence (O95477 whole entry): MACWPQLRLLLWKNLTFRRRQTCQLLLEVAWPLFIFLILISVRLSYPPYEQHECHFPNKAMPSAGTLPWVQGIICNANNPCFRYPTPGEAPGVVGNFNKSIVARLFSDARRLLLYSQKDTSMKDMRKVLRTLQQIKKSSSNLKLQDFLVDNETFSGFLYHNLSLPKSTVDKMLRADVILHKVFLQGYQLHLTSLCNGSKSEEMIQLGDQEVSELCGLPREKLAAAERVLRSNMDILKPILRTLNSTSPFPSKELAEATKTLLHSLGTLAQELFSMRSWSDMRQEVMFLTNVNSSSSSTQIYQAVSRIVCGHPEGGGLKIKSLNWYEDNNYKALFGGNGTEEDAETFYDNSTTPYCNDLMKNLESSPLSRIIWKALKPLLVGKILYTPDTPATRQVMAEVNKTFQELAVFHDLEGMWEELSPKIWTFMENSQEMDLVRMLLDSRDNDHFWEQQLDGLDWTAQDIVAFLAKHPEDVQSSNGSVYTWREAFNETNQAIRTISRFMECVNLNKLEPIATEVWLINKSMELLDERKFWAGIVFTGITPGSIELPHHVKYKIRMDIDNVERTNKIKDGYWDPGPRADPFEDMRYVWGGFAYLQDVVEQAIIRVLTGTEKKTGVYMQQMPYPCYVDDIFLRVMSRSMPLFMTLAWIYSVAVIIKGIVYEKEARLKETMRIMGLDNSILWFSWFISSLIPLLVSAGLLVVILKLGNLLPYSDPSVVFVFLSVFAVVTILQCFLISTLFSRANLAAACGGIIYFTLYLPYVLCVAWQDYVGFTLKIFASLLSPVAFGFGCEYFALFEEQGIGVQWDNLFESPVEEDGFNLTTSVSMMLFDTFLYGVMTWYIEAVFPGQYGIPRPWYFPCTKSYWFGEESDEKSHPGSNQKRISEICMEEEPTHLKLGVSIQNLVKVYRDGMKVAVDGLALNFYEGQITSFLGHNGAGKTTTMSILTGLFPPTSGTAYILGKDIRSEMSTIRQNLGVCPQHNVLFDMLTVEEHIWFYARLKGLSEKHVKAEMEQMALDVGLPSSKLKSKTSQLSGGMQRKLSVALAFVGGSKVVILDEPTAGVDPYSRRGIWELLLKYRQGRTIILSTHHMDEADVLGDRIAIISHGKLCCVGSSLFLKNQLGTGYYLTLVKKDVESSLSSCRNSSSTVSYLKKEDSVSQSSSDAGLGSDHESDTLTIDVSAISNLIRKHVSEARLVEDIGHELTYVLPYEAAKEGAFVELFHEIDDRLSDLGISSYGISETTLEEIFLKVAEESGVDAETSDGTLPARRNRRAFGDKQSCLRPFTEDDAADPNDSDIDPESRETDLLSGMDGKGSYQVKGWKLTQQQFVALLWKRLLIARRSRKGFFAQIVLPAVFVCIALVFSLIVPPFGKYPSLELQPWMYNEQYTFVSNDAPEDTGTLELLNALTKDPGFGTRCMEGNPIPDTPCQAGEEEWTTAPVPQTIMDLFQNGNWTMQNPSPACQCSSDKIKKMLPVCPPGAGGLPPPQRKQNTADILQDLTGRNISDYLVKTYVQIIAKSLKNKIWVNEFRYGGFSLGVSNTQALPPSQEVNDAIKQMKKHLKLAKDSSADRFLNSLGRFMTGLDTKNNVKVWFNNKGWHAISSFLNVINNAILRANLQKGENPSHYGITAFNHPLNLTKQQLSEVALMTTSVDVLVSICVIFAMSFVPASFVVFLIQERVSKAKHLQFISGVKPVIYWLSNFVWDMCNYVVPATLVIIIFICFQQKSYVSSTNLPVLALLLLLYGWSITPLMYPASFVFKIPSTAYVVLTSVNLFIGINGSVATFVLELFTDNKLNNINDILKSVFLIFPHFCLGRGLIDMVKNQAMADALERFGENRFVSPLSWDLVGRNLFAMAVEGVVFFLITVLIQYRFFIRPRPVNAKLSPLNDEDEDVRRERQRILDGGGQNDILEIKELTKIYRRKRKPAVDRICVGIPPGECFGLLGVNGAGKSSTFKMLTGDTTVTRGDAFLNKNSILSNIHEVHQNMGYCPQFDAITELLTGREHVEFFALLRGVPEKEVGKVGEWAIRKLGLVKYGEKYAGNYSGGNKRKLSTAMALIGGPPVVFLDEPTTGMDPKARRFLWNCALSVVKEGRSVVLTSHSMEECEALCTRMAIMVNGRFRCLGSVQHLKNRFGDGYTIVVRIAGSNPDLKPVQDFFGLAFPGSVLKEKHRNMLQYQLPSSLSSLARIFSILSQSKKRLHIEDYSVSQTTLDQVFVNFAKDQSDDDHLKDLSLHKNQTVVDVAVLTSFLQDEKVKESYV

Row | Molecule | expression of CDKN2A or CDKN1A [1] | expression of SASP genes (IL1A, IL1B) [1] | SASP factors (Mmp3, Mmp13, Cxcl1) [2] | expression of lysosomal ABCA1 (LysoIP immunoblot) [4] | osteoarthritis progression / cartilage destruction in knee joints (Safranin O staining) [6] | expression levels of SASP factors (IL6, MMP13) and senescence markers (p16, nuclear HMGB1) [6] | osteoarthritis-related pain symptoms / pain indicators [6] | also measured
1 | CC[C@H](C)C(=O)O[C@H]1C[C@@H](C)C=C2C=C[C@H](C)[C@H](CC[C@@H]3C[C@@H](O)CC(=O)O3)[C@H]21 [lovastatin] | without affecting | suppressed | suppressed |  |  |  |  | expression of the cholesterol transporter gene ABCA1 ([1]; senescent cells vs normal proliferating cells (PRO)): also suppressed
2 | methyl-β-cyclodextrin [MBCD] |  | reduced |  |  |  |  |  | cholesterol levels ([3]; senescence-induced cells, cholesterol-depleted (MBCD+) conditions): decreased
3 | CC(C)CCC[C@@H](C)[C@H]1CC[C@H]2[C@@H]3CC=C4C[C@@H](O)CC[C@]4(C)[C@H]3CC[C@]12C [cholesterol] | little effect | significantly increased |  |  |  |  |  | 
4 | CC(C)(Sc1cc(C(C)(C)C)c(O)c(C(C)(C)C)c1)Sc1cc(C(C)(C)C)c(O)c(C(C)(C)C)c1 [probucol] | minimal effect |  | upregulated | further enhanced | worsened | increased | worsened | SASP (IL1A, IL1B) activation [1, 7]: not activated; SASP activity ([1]; oncogene-induced senescent cells (SEN (OIS)), probucol 10 μM): increased; SASP activity ([1]; senescence-induced cells (SEN), probucol treatment): increased; cholesterol accumulation (lysosomal) ([3]; DNA damage-induced senescent cells (SEN), probucol 10 μM): promoted; mTORC1 activation [5, 7]: not activated; mTORC1 activity ([5]; senescence-induced cells, probucol treatment): activation; Osteoarthritis Research Society International (OARSI) grades [6, 8]: higher; dynamic and static weight-bearing capacity [6, 8]: impaired; hindlimb withdrawal threshold [6, 8]: reduced
5 | COc1ccc(Cl)cc1C(=O)NCCc1ccc(S(=O)(=O)NC(=O)NC2CCCCC2)cc1 [glyburide] |  |  | suppressed | decrease | alleviated | decreased | amelioration | SASP activity [1, 9]: inhibited; SASP activation / SASP factor expression induced by probucol ([1]; senescence-induced cells treated with probucol plus test substance): completely suppressed; lysosomal cholesterol accumulation [3, 9]: inhibited
